Experimental data as given in patent US5300672A (priority 1992, dated 1994).
Like-named read-outs stand apart in the source and are kept apart here.

How the values were obtained:
Pseudomonas fluorescens = assay: Alternate Minimum Inhibitory Concentrations Test (Table 4), Ps.fl; type: cell-based; details: Pseudomonas fluorescens; Table 4 alternate test; 250 ppm to 0.8 ppm in TSB, 72 hours, 30° C.; read-out: MIC Ps.fl
Method: The compounds of Examples 1-8, 12-26, 28-33, 36-37, 39-42, 44-109, 111-114, and 116-120 were subjected also to the following alternate biocidal activity test procedures with the results as indicated in Table 4.
The MIC test measures the viability of Pseudomonas fluorescens inoculum in TSB when exposed for 72 hours to varying concentrations of test compound.
A 125 μl aliquot of 10,000 ppm test compound in acetone was added to 4.88 ml of TSB to provide a 250 ppm solution. From this solution, 100 μL was transferred to the first row of two microtiter plate columns. Both replicates and five additional compounds were all serially diluted 1:1 to a final concentration of 0.8 ppm in TSB.
Inoculation was accomplished by diluting a 24 hr Ps fl culture, four mls per 36 mls of phosphate buffer solution. A Dynatech autoinoculator was used to transfer 1.5 μl of this cell suspension to the microtiter plates. The plates were incubated at 30° C. for 3 days before the lowest concentration at which no growth occurs was recorded in the database.

Piricularia oryzae = assay: whole plant or invertebrate; type: in vivo; details: Pyricularia oryzae; for pest or weed control at 200 ppm: read-out: % Control RB, application rate 200 ppm; for pest or weed control at 100 ppm: read-out: % Control RB, application rate 100 ppm
[1] = test system: Erysiphe graminis (f. sp. tritici); assay: whole plant or invertebrate; type: in vivo; details: Blumeria graminis; read-out: % Control WPM
[2] = test system: Pellicularia filamentosa (f. sp. sasiki); assay: whole plant or invertebrate; type: in vivo; details: 120 h; read-out: % Control RSB
Phytophthora infestans = assay: whole plant or invertebrate; type: in vivo; details: Phytophthora infestans, in Solanum lycopersicum, 96 h
[3] = test system: Puccinia recondita (f. sp. tritici Races PKB and PLD); assay: whole plant or invertebrate; type: in vivo; details: Puccinia recondita, 240 h; read-out: % Control WLR
[4] = read-out: % Control TLB, application rate 100 ppm
[5] = read-out: % Control TLB, application rate 200 ppm

Compound | MIC (Pseudomonas fluorescens) [µg/mL] | pest or weed control at 200 ppm [1] [%] | pest or weed control at 200 ppm [2] [%] | pest or weed control at 200 ppm [3] [%] | pest or weed control at 100 ppm [1] [%] | pest or weed control at 100 ppm [2] [%] | pest or weed control at 100 ppm [3] [%] | pest or weed control at 100 ppm (Piricularia oryzae) [%] | pest or weed control at 100 ppm (Phytophthora infestans; read-out: % Control TLB) [%] | other results
C=Cc1ccc(C(=O)S/C=C\C(=O)NCCCCCCCC)cc1 [Compound 64, N-octyl-cis-3-[(4-ethenylbenzoyl)thio]acrylamide] | > 250 | 0 | 0 | 0 |  |  |  |  |  | pest or weed control at 200 ppm (Piricularia oryzae): 0%; pest or weed control at 200 ppm (Phytophthora infestans; read-out: % Control TLB): 80%
CCCCCCCCNC(=O)/C=C\SC(=O)c1cccc(Br)c1 [Compound 36, N-octyl-cis-3-[(3-bromobenzoyl)thio]acrylamide] | > 250 |  |  |  | 0 | 0 | 0 |  |  | pest or weed control at 25 ppm (Piricularia oryzae; read-out: % Control RB): 90%; pest or weed control at 100 ppm (Phytophthora infestans; [4]): 0%
CCCCCCCCNC(=O)/C=C\SC(=O)c1ccccc1CCl [Compound 35, N-octyl-cis-3-[(2-(chloromethyl)benzoyl)thio]acrylamide] |  |  |  |  | 85 | 0 | 0 | 80 |  | pest or weed control at 100 ppm (Phytophthora infestans; [4]): 0%
CCCCCCCCNC(=O)/C=C\SC(=O)CC(=O)OCC [Compound 2, N-octyl-cis-3-(ethylmalonylthio)acrylamide] | > 250 |  |  |  | 0 | 0 | 0 |  | 90 | pest or weed control at 6 ppm (Piricularia oryzae; read-out: % Control RB, application rate 6 ppm): 50%
CCCCCCCCNC(=O)/C=C\SC(=O)c1cc(Cl)cc(Cl)c1 [Compound 54, N-octyl-cis-3-[(3,5-dichlorobenzoyl)thio]acrylamide] | > 250 |  |  |  | 0 | 0 | 0 |  | 85 | 
CCCCCCCCNC(=O)/C=C\SC(=O)CCCCCCC [Compound 23, N-octyl-cis-3-(octanoylthio)acrylamide] | > 250 |  |  |  | 0 | 80 | 0 | 0 |  | pest or weed control at 100 ppm (Phytophthora infestans; [4]): 0%
C=CCC(=O)S/C=C\C(=O)NCCCCCCCC [Compound 63, N-octyl-cis-3-[(3-butenoyl)thio]acrylamide] | > 250 | 0 | 0 | 0 |  |  |  |  |  | pest or weed control at 200 ppm (Piricularia oryzae): 0%; pest or weed control at 200 ppm (Phytophthora infestans; [5]): 100%
CCCCCCCCNC(=O)/C=C\SC(=O)c1ccsc1 [Compound 65, N-octyl-cis-3-[(3-thiophene)carbonylthio]acrylamide] | > 250 | 0 | 0 | 0 |  |  |  |  |  | pest or weed control at 200 ppm (Piricularia oryzae): 0%; pest or weed control at 200 ppm (Phytophthora infestans; [5]): 95%
CCCCCCCCNC(=O)/C=C\SCC(=O)OCC [Compound 34, N-octyl-cis-3-(ethoxycarbonylmethanethio)acrylamide] |  |  |  |  | 0 | 90 | 0 | 0 | 80 | 
CCCCCCCCNC(=O)/C=C\SC(=O)C(CC)CCCC (stereo not drawn) [Compound 27, N-octyl-cis-3-[(2-ethylhexanoyl)thio]acrylamide] |  |  |  |  | 0 | 0 | 0 | 0 | 90 | 
CCCCCCCCNC(=O)/C=C\SC(C)C(=O)OC (stereo not drawn) [Compound 38] |  |  |  |  | 0 | 0 | 0 |  |  | pest or weed control at 25 ppm (Piricularia oryzae; read-out: % Control RB, application rate 25 ppm): 80%; pest or weed control at 6 ppm (Phytophthora infestans; read-out: % Control TLB): 80%
CCCCCCCCNC(=O)/C=C\SC(=O)CCCCCCCCCCC#N [Compound 58, N-octyl-cis-3-[(11-cyanoundecanoyl)thio]acrylamide] | > 250 | 0 | 50 | 0 |  |  |  |  |  | pest or weed control at 200 ppm (Phytophthora infestans; [5]): 0%
